This data set in a line: TEASE-3: safety. Type of data set: in vivo, human. Conditions: 14 mg daily, three patients. The method, then: Patients received gildeuretinol acetate 14 mg capsules, to be taken orally once daily. Trial visits occurred every 6 months approximately following screening and treatment start visits.
Ocular safety was assessed by retinal imaging and ocular exam, which included evaluation of the anterior and posterior segments and the lens. Systemic safety was assessed by physical exam, comprehensive clinical labs (biochemistry, hematology, lipids), and 12-lead ECG.

The source of these data is patent US20260345517A1, “DOSAGE REGIMENS FOR TREATING STARGARDT DISEASE” (Alkeus Pharmaceuticals, Inc., priority 2024, published 2026).

As to `CC(=O)OC/C=C(C)/C=C/C=C(C)/C=C/C1=C(C)CCCC1(C)C` [gildeuretinol acetate, C20-D3-retinol acetate], the “adverse reactions linked to excessive or insufficient vitamin A” value is given as “None of the three treated Stargardt disease asymptomatic patients exhibited adverse reactions”.
